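A five-concentration, 48-hour dose response in 96-well plates underlies each endpoint, interpolated linearly between surrounding concentrations. GI50 marks 50% less growth. TGI denotes the concentration required for complete inhibition of growth.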
Key:
Assay in all cases: NCI-60 cell line screen, 48 h
[1] = system: MCF7 breast
[2] = system: OVCAR-5 ovarian
[3] = system: SF-539 CNS
[4] = system: SK-OV-3 ovarian
[5] = system: HCT-15 colon
[6] = system: T-47D breast
[7] = system: HL-60(TB) leukemia
[8] = system: UACC-257 melanoma
[9] = system: A549 NSCLC
[10] = system: SF-295 CNS
[11] = system: TK-10 renal
[12] = system: KM12 colon
[13] = system: UO-31 renal
[14] = system: OVCAR-4 ovarian
[15] = system: SNB-19 CNS
[16] = system: MALME-3M melanoma
[17] = system: HCT-116 colon
[18] = system: HCC-2998 colon
[19] = system: SK-MEL-5 melanoma
[20] = system: A498 renal
[21] = system: SW-620 colon
[22] = system: UACC-62 melanoma
[23] = system: RXF 393 renal
[24] = system: SF-268 CNS
[25] = system: RPMI-8226 leukemia
[26] = system: U251 CNS
[27] = system: SNB-75 CNS
[28] = system: HT29 colon
[29] = system: DU-145 prostate

`CN(C)CCNC(=O)c1ccc(-c2nc3ccc4[nH]ncc4c3c3c2CCC3)cc1` showed a TGI [1] of 5250 nM, a GI50 [2] of 1400 nM and a TGI [2] of 7340 nM. It also gave a GI50 [3] of 606 nM, a TGI [3] of 1740 nM and a GI50 [4] of 288 nM. It also gave a TGI [4] of 3040 nM, a GI50 [5] of 1610 nM and a TGI [5] of 7630 nM. The GI50 [6] was 1370 nM, the TGI [6] was 9660 nM and the GI50 [7] was 992 nM. The TGI [7] was 3340 nM, the GI50 [8] was 2310 nM and the TGI [8] was 8360 nM. It also gave a GI50 [9] of 1260 nM, a TGI [9] of 6780 nM and a GI50 [10] of 1340 nM. For the same compound, the TGI [10] was 5380 nM, the GI50 [11] was 295 nM and the TGI [11] was 5380 nM. For the same compound, the GI50 [12] was 1080 nM, the TGI [12] was 4620 nM and the GI50 [13] was 1070 nM. The TGI [13] was 4660 nM, the GI50 [14] was 1330 nM and the TGI [14] was 5480 nM. The GI50 [15] was 1470 nM, the TGI [15] was 6210 nM and the GI50 [16] was 1260 nM. It also gave a TGI [16] of 4130 nM, a GI50 [17] of 331 nM and a TGI [17] of 4340 nM. For the same compound, the GI50 [18] was 1250 nM, the TGI [18] was 5680 nM and the GI50 [19] was 1600 nM. For the same compound, the TGI [19] was 5980 nM, the GI50 [20] was 281 nM and the TGI [20] was 1070 nM. The GI50 [21] was 611 nM, the TGI [21] was 3610 nM and the GI50 [22] was 1100 nM. The TGI [22] was 6100 nM, the GI50 [23] was 279 nM and the TGI [23] was 1100 nM. It also gave a GI50 [24] of 634 nM, a TGI [24] of 2140 nM and a GI50 [25] of 1190 nM. The TGI [25] was 4140 nM, the GI50 [26] was 1020 nM and the TGI [26] was 6510 nM. For the same compound, the GI50 [27] was 543 nM, the TGI [27] was 2040 nM and the GI50 [28] was 1290 nM. The TGI [28] was 6130 nM, the GI50 [29] was 760 nM and the TGI [29] was 5010 nM.
